Measured values: ChEMBL document CHEMBL1155333, “Amine substituted N-(1H-benzimidazol-2ylmethyl)-5,6,7,8-tetrahydro-8-quinolinamines as CXCR4 antagonists with potent activity against HIV-1” (Bioorg Med Chem Lett, 2009)
Calls of active or inactive are those of the source. The rule behind the calls is not given here.

Key:
[1] = system: Human immunodeficiency virus 1; assay: Antiviral activity against HIV1 3B infected in human HOS cells; assay type: functional, organism-based; settings: Human immunodeficiency virus 1, 3B
[2] = Cytotoxicity against human HOS cells; assay type: cell-based
[3] = target: C-X-C chemokine receptor type 4 (Homo sapiens) (UniProt P61073); assay: Antagonist activity at CXCR4 by noncompetitive binding assay
[4] = system: Human immunodeficiency virus 1; assay: Ratio of AMD070 IC50 to compound IC50 for HIV1 3B infected in human HOS cells; assay type: functional

C-X-C chemokine receptor type 4 (Homo sapiens), sequence (P61073 whole entry): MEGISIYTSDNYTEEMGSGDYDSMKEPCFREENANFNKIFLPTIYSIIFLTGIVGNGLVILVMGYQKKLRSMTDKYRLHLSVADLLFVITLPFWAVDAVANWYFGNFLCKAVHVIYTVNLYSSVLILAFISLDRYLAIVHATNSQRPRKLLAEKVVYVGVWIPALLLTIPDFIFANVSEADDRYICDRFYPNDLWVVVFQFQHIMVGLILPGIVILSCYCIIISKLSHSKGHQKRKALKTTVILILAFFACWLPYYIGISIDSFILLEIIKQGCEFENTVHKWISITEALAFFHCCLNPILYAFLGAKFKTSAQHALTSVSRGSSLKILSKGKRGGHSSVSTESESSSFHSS

SMILES	IC50 [1]	CC50 [2]	Activity [3]	Ratio IC50 [4]
NCCCCN(Cc1nc2ccccc2[nH]1)[C@H]1CCCc2cccnc21 [MAVORIXAFOR]	0.01 µM	> 10 µM	Active	–
CN(Cc1nc2ccccc2n1CCCCCN)C1CCCc2cccnc21 (stereo not given)	0.228 µM	4.5 µM	Active	–
CN(Cc1nc2c(CN3CCNCC3)cccc2[nH]1)C1CCCc2cccnc21 (stereo not given)	–	12 µM	–	–
CN(Cc1nc2c(C(=O)NCCN)cccc2[nH]1)C1CCCc2cccnc21 (stereo not given)	–	> 10 µM	–	–
CN1CCN(C(=O)c2cccc3nc(CN(C)C4CCCc5cccnc54)[nH]c23)CC1 (stereo not given)	0.033 µM	–	Active	–
CN(Cc1nc2cccc(C(=O)NCCCCN)c2[nH]1)C1CCCc2cccnc21 (stereo not given)	0.396 µM	> 20 µM	Active	–
CN(C)CCCc1cccc2[nH]c(CN(C)C3CCCc4cccnc43)nc12 (stereo not given)	–	7.5 µM	–	–
CN(Cc1nc2ccccc2[nH]1)C1CCCc2cccnc21 (stereo not given)	1.35 µM	5.3 µM	Active	–
CN(Cc1nc2ccccc2n1CCCN)C1CCCc2cccnc21 (stereo not given)	0.044 µM	> 20 µM	Active	–
CN1CCN(c2cccc3nc(CN(C)[C@@H]4CCCc5cccnc54)[nH]c23)CC1	0.0069 µM	12.3 µM	Active	–
CN(Cc1nc2cccc(C(=O)NCCCN)c2[nH]1)C1CCCc2cccnc21 (stereo not given)	0.134 µM	> 20 µM	Active	–
CN(Cc1nc2cccc(C(=O)NCCN)c2[nH]1)C1CCCc2cccnc21 (stereo not given)	0.027 µM	–	Active	–
CN(Cc1nc2cccc(N3CCN(C(=O)OC(C)(C)C)CC3)c2[nH]1)C1CCCc2cccnc21 (stereo not given)	0.271 µM	> 10 µM	Active	–
CN(Cc1nc2ccccc2n1CCN)C1CCCc2cccnc21 (stereo not given)	0.197 µM	> 20 µM	Active	–
CN(Cc1nc2ccccc2n1CCCNC(=N)N)C1CCCc2cccnc21 (stereo not given)	0.026 µM	> 20 µM	Active	–
CN(Cc1nc2c(CNCCc3c[nH]cn3)cccc2[nH]1)C1CCCc2cccnc21 (stereo not given)	–	> 20 µM	–	–
CN(Cc1nc2cccc(N3CCNCC3)c2[nH]1)C1CCCc2cccnc21 (stereo not given)	0.006 µM	–	Active	–
CN(Cc1nc2cccc(CN3CCNCC3)c2[nH]1)C1CCCc2cccnc21 (stereo not given)	0.013 µM	–	Active	–
CN(Cc1nc2ccccc2n1CCCCN)C1CCCc2cccnc21 (stereo not given)	0.144 µM	2.9 µM	Active	–

SMILES	IC50 [1]	CC50 [2]	Activity [3]	Ratio IC50 [4]
CN(Cc1nc2cccc(CN)c2[nH]1)C1CCCc2cccnc21 (stereo not given)	1.3 µM	> 20 µM	Active	–
CN(Cc1nc2c(CCCN3CCCCC3)cccc2[nH]1)C1CCCc2cccnc21 (stereo not given)	–	8.7 µM	–	–
CN(Cc1nc2cccc(C(=O)NCCc3cnc[nH]3)c2[nH]1)C1CCCc2cccnc21 (stereo not given)	0.019 µM	> 10 µM	Active	–
CN(C)CCCc1cccc2nc(CN(C)C3CCCc4cccnc43)[nH]c12 (stereo not given)	0.022 µM	–	Active	–
CN(Cc1nc2cccc(CCCN)c2[nH]1)C1CCCc2cccnc21 (stereo not given)	0.024 µM	–	Active	–
CN(Cc1nc2cccc(CNCCN)c2[nH]1)C1CCCc2cccnc21 (stereo not given)	0.54 µM	> 20 µM	Active	–
CN(Cc1nc2ccccc2n1CCCNC(=O)C(F)(F)F)C1CCCc2cccnc21 (stereo not given)	0.243 µM	10.4 µM	Active	–
CN(Cc1nc2cccc(CCCN3CCCCC3)c2[nH]1)C1CCCc2cccnc21 (stereo not given)	0.025 µM	–	Active	–
CN(Cc1nc2c(N3CCNCC3)cccc2[nH]1)C1CCCc2cccnc21 (stereo not given)	–	> 20 µM	–	–
CN1CCN(c2cccc3nc(CN(C)C4CCCc5cccnc54)[nH]c23)CC1 (racemic)	0.002 µM	14 µM	Active	10
CN(Cc1nc2cccc(CNCCc3cnc[nH]3)c2[nH]1)C1CCCc2cccnc21 (stereo not given)	0.041 µM	–	Active	–
CN(Cc1nc2c(CCCN3CCCC3)cccc2[nH]1)C1CCCc2cccnc21 (stereo not given)	–	8.2 µM	–	–
CN1CCN(C(=O)c2cccc3[nH]c(CN(C)C4CCCc5cccnc54)nc23)CC1 (stereo not given)	–	> 10 µM	–	–
CN1CCN(c2cccc3nc(CN(C)[C@H]4CCCc5cccnc54)[nH]c23)CC1	0.0006 µM	12.5 µM	Active	–
CN(Cc1nc2c(CCCN)cccc2[nH]1)C1CCCc2cccnc21 (stereo not given)	–	10 µM	–	–
CN(Cc1nc2cccc(C(=O)N3CCNCC3)c2[nH]1)C1CCCc2cccnc21 (stereo not given)	0.046 µM	> 20 µM	Active	–
CN(C)CCCn1c(CN(C)C2CCCc3cccnc32)nc2ccccc21 (stereo not given)	0.017 µM	16.8 µM	Active	–
CN(Cc1nc2cccc(CCCN3CCCC3)c2[nH]1)C1CCCc2cccnc21 (stereo not given)	0.023 µM	–	Active	–
